Source: US9656960B2, “Inhibitors of microsomal triglyceride transfer protein and apo-B secretion” (Surface Logix, Inc., priority 2005, dated 2017)

Legend:
Apo-B [1] = test: Apo-B secretion assay in HepG2 cells (ELISA); assay type: cell-based; conditions: Homo sapiens, 24 hour incubation, ELISA of growth media
Procedure: A test compound is considered to be active if it is active in any of the following screens. The activity of a compound according to the invention can be assessed by measuring inhibition of apo B secretion in HepG2 cells.
(§1) The following protocol is written for HepG2 cells types, but the same or similar protocol may be used with other cell types, such as Caco-2 cells.
(§2) HepG2 cells were grown in MEM Eagle's medium containing 10% fetal bovine serum with 1% penicillin/streptomycin in an incubator (5% CO2, 100% relative humidity, 37° C.). At ca. 85% confluency, the cells were treated with test compounds (0.2% DMSO) at appropriate concentrations in triplicate. After 24 hour incubation with the test compounds, growth media were collected from each sample. Concentrations for apo-B and apoA1 were determined using ELISA. Mouse anti-human Apo-B and ApoA1 antibody and Alk-phos conjugated secondary antibody (goat) was used in ELISA. Triplicate data in six half-log concentrations were used to calculate an IC50 value for each compound.

ApoA1 [2] = test: ApoA1 secretion assay in HepG2 cells (ELISA); assay type: cell-based; conditions: Homo sapiens, 24 hour incubation, ELISA of growth media
Procedure: as §1, §2

ApoA1 [3] = test: ApoA1 secretion assay in Caco-2 cells (ELISA); assay type: cell-based; conditions: Homo sapiens
Procedure: as §1, §2

Apo-B [4] = test: Apo-B secretion assay in Caco-2 cells (ELISA); assay type: cell-based; conditions: Homo sapiens
Procedure: as §1, §2

Caco-2 = test: Bidirectional Caco-2 permeability assay; assay type: in vitro ADME; conditions: bidirectional Caco-2 assay, analysis by fluorescence and HPLC
Procedure: The following table (Table 1) depicts the activity of several compounds of Formula I or II according to the present invention. Permeability was measured in a bidirectional Caco-2 assay with analysis by fluorescence and HPLC.

IC50 (Apo-B [1]) | IC50 (ApoA1 [2]) | IC50 (ApoA1 [3]) | IC50 (Apo-B [4]) | Caco-2 (10-6 cm/sec) (Caco-2) | SMILES
3 nM | > 30000 nM | > 30000 nM | 40 nM | 0 10-6 cm/sec | O=C(Nc1ccc2c(c1)CCN(C(=S)NCc1ccccc1)C2)c1ccccc1-c1ccc(C(F)(F)F)cc1 [Compound 10]
1.6 nM | > 30000 nM | > 30000 nM | 7.7 nM | 0 10-6 cm/sec | COc1cccc(C(=O)Nc2ccc3c(c2)CCN(C(=O)Oc2ccccc2)C3)c1-c1ccc(C(F)(F)F)cc1 [Compound 11]
230 nM | > 30000 nM | > 30000 nM | 4400 nM | 0 10-6 cm/sec | COc1cccc(C(=O)Nc2ccc3c(c2)CCN(c2nc(-c4ccccc4)cs2)C3)c1-c1ccc(C(F)(F)F)cc1 [Compound 14]
0.7 nM | > 30000 nM | > 30000 nM | 16 nM | 0 10-6 cm/sec | CC(C)Oc1cccc(C(=O)Nc2ccc3c(c2)CCN(C(=O)Oc2ccccc2)C3)c1-c1ccc(C(F)(F)F)cc1 [Compound 17]
30 nM | > 30000 nM | > 30000 nM | 15 nM | 30 10-6 cm/sec | COCCCNC(=S)N1CCc2cc(NC(=O)c3ccccc3-c3ccc(C(F)(F)F)cc3)ccc2C1 [Compound 13]
2.3 nM | > 30000 nM | > 30000 nM | 11 nM | 0 10-6 cm/sec | COc1cccc(C(=O)Nc2ccc3c(c2)CCN(C(=O)Oc2ccc(F)cc2)C3)c1-c1ccc(C(F)(F)F)cc1 [Compound 16]
6 nM | > 30000 nM | > 30000 nM | 60 nM | 0 10-6 cm/sec | COc1cccc(C(=O)Nc2ccc3c(c2)CCN(C(=O)OC(C)(C)C)C3)c1-c1ccc(C(F)(F)F)cc1 [Compound 15]
220 nM | > 30000 nM | > 30000 nM | 110 nM | 0 10-6 cm/sec | O=C(Nc1ccc2c(c1)CCN(C(=O)OCc1ccccc1)C2)c1ccccc1-c1ccc(C(F)(F)F)cc1 [Compound 12]
